Patent publication US12396948B2, “Pharmaceutical compositions for the treatment of ophthalmic conditions” (Rhodes Technologies, priority 2017, dated 2025)
Counter-ions that a name gives are not always drawn.

Key:
Female C57BL/6J mice [1] = test: Conscious mouse IOP after single topical drop (Example 57); assay type: in vivo; conditions: for maximal IOP effect: conscious mice
Description: Female C57BL/6J mice (Jackson Laboratories, Bar Harbor, ME; age 2-3 months) were kept in 12 h light/12 h dark conditions (lights on 0600 h) and fed with standard chow. All experimental procedures were conducted in accordance with the ARVO Statement for the Use of Animals in Ophthalmic and Vision Research, and the University of North Texas Health Science Center Institutional Animal Care and Use Committee Regulations and Guidelines.
Dronabinol ophthalmic solutions (0.05% and 0.5%) and the corresponding vehicle were provided by Rhodes Technologies. Timolol maleate 0.5% (Hi. Tech Pharmacal) was purchased. Formulation AE10C-B was prepared as described above (Table 44).
The 2-tailed unpaired Student's t-test was used for comparison of results at the same time point between two study groups. P values of less than 0.05 were considered significant. All data are presented as mean±SEM.

Female C57BL/6J mice [2] = test: Mouse aqueous humor dynamics by constant flow infusion (Example 57); conditions: 0.5% emulsion
Description: Briefly, immediately following bilateral tonometry in anesthetized animals, both eyes received a drop of proparacaine HCl (0.5%) for topical anesthesia, and both anterior chambers were cannulated with a 30G needle (one per eye) connected to previously calibrated BLPR-2 flow-through pressure transducers (World Precision Instruments (WPI), Sarasota, FL) for the continuous determination of pressure. A drop of PBS was also given to each eye topical ocular to prevent corneal drying. The opposing end of each transducer was connected to a 3-way valve, which in turn was connected to: (a) a 50 FAL glass microsyringe (Hamilton Company, Reno, NV) filled with sterile PBS loaded into an SP101i microdialysis infusion pump (WPI), and (b), an open ended, variable height manometer. Signals from the pressure transducers were passed via a TBM4M Bridge Amplifier (WPI) and a Lab-Trax analog-to-digital converter (WPI) to a computer. Data were recorded using LabScribe2 software (WPI).
The manometer was closed to the circuit and eyes were infused at a flow rate of 0.1 μL/min. When pressure had stabilized, pressure measurements were recorded, and flow rate was increased sequentially to 0.2, 0.3, 0.4, and 0.5 μL/min. Three stabilized pressures (spaced 5 min apart) at each flow rate were recorded. Aqueous outflow facility (C) in each eye of each animal was calculated as the reciprocal of the slope of a plot of Mean Stabilized Pressure as ordinate against Flow Rate as abscissa.
Episcleral venous pressure (Pe) was estimated using the blood reflux method. Briefly, following anterior chamber cannulation, the manometer was opened to the circuit, manometric pressure was set to equal pre-cannulation (anesthetized) TOP, and then manometric pressure was lowered incrementally (at the rate of 1 mmHg/min) until the point at which blood was seen (using a dissection microscope under 30× magnification) to reflux into the scleral collector channels and then Schlemm's canal. The manometric pressure at which Schlemm's canal was seen to fill with refluxed blood was regarded as Pe.
After completion of the above measurements, animals were euthanized by anesthetic overdose and, 20 min following euthanasia, C was measured again. Thus values for Clive and C dead were obtained. Following euthanasia, both aqueous humor formation rate (Fin) and Pe are equal to zero, and via algebraic rearrangement of the modified Goldmann equation {IOP=[(Fin−Fu)/C]+Pe}, values for Fu were thus calculated for each individual perfusion rate and corresponding TOP. The mean of those resultant 5 values was reported as Fu.
Aqueous Humor Formation Rate (Fin) was calculated for each eye by further algebraic rearrangement of the modified Goldmann equation: Fin=[C×(IOP−Pe)]+Fu.

mouse = test: Repeated dosing study on IOP lowering effects (Example 58); assay type: in vivo; conditions: for maximum IOP reduction: twice daily 7 days, vs contralateral untreated eye
Description: Study protocol is similar to Dose-Response Relationship Study described above, except that the animals are divided into three groups (as specified below). A single 5 μL drop was instilled topically onto one eye of each mouse twice daily starting at time 0 of Day 1.
The contralateral eye was untreated. IOP of both eyes was measured at −1 h (baseline), 2 h, 4 h, 6 h, 8 h, 12 h. […] In addition to IOP measurement, animals were evaluated for possible ocular and gross systemic adverse effects. • Group 1: Vehicle • Group 2: Dronabinol (optimal concentration determined in studies above) • Group 3: Timolol (0.5%) Results: The results are presented in FIGS. 28 and 29, which illustrate comparison of IOP effects of the Dronabinol formulations, vehicle, and Timolol. The formulations were administered twice daily at 8-9 AM (Time 0) and 4-5 PM starting Day 1 till Day 7. The upper panel reports IOP values at the indicated time points after dosing (IOP at Time 0 was obtained immediately prior to the morning dosing) of Days 1, 4, and 7. The bottom panel represents % IOP change compared to the contralateral untreated eye, whose IOP defines 100%. Data are shown as mean±SEM.

[3] = cited from earlier work
[4] = Impurity profile of antioxidant excipient solutions (Example 42); assay type: physicochemical; conditions: for Impurity (% Area) Total / Impurity (% w/w) Total: excipient solution; for Impurity (% w/w) Total: converted to levels corresponding to antioxidant concentrations in the dronabinol formulations

Compound: CCCCCc1cc(O)c2c(c1)OC(C)(C)[C@@H]1CCC(C)=C[C@@H]21 [Dronabinol, (−)-trans-Δ^9-tetrahydrocannabinol]
- IOP reduction at 24 h after treatment (Female C57BL/6J mice [1]; 0.05% and 0.5%, single 5 μL drop): still significant
- ocular, systemic, or behavioral adverse effects (Female C57BL/6J mice [1]; 0.05% and 0.5%, single topical drop): No ocular, systemic, or behavioral adverse effects were observed
- maximal IOP effect (Female C57BL/6J mice [1]; 0.05% ophthalmic solution, single 5 μL drop, @ 6 h): −22.3%
- maximal IOP effect (Female C57BL/6J mice [1]; 0.5% ophthalmic solution, single 5 μL drop, @ 2 h): −25.8%
- ocular adverse effect (Female C57BL/6J mice [2]): No ocular adverse effect was observed
- IOP lowering in anesthetized animals (Female C57BL/6J mice [2]; 2 h after treatment): 29.9%
- aqueous humor formulation rate, change (Female C57BL/6J mice [2]; 2 h after treatment): −21.6%
- aqueous outflow facility, increase (Female C57BL/6J mice [2]; 2 h after treatment): 54.5%
- episcleral venous pressure, change (Female C57BL/6J mice [2]; 2 h after treatment): −26.8%
- maximum IOP reduction (mouse; 0.005% formulation): 19.8%
- maximum IOP reduction (mouse; 0.015% formulation): 25.7%
- maximum IOP reduction (mouse; 0.05% formulation): 33.2%
- duration of action (mouse; 0.05%, lowered baseline IOP at Days 4 & 7): > 16 h
- tachyphylaxis or adverse effect (mouse; 7-day twice daily dosing, 0.005%, 0.015%, 0.05%): No tachyphylaxis or adverse effect was observed

Compound: O=S=O [Sulfur Dioxide]
- Solub. in Water [3]: 8.5 g/100 mL water

Compound: O=C(O)CC(O)C(=O)O (centres unmarked) [Malic Acid]
- Solub. in Water [3]: 59.2 g/100 mL water

Compound: CC(C)(C)NC[C@H](O)COc1nsnc1N1CCOCC1 [Timolol, Timolol maleate]
- effect on mouse IOP (Female C57BL/6J mice [1]; 0.5%, positive control): lowered mouse TOP as expected
- prolonged IOP reduction (baseline IOP at Days 4 & 7) (mouse; 0.5%, twice daily): did not produce this prolonged IOP reduction
- maximum IOP reduction (mouse; 0.5%): 35.1%

Compound: O=S([O-])S(=O)(=O)[O-].[K+].[K+] [Potassium Metabisulfite]
- Solub. in Water [3]: 49.5 g/100 mL water

Compound: O=S([O-])[O-].[Na+].[Na+] [Sodium Sulfite]
- Impurity (% Area) Total [4]: 0.0 % Area
- Impurity (% w/w) Total [4]: 0.0 % w/w

Compound: O=C(O)/C=C/C(=O)O [Fumaric Acid]
- Solub. in Water [3]: 0.007 mg/L

Compound: OCC(O)CS (centres unmarked) [Monothioglycerol]
- Solub. in Water (in words) [3]: Slightly

Compound: O=S([O-])S(=O)(=O)[O-].[Na+].[Na+] [Sodium Metabisulfite]
- Solub. in Water (in words) [3]: Freely

Compound: CC(=O)OC/C=C(C)/C=C/C=C(C)/C=C/C1=C(C)CCCC1(C)C [Vitamin A]
- RRT 0.83 in testing of excipients ([4]; 0.5% Vitamin A): ~0.5 % w/w

Compound: COc1ccc(O)c(C(C)(C)C)c1 [Butylated Hydroxyanisole (BHA)]
- Solub. in Water (in words) [3]: Insoluble

Compound: CCCOC(=O)c1cc(O)c(O)c(O)c1 [Propyl Gallate]
- Solub. in Water [3]: 0.35 g/100 mL water

Compound: Vitamin E
- Solub. in Water (in words) [3]: Insoluble

Compound: CCCCCCCCCCCCCCCC(=O)OC[C@H](O)[C@H]1OC(=O)C(O)=C1O [Ascorbyl Palmitate]
- Solub. in Water [3]: 0.07 mg/L

Compound: O=S([O-])([O-])=S.[Na+].[Na+] [Sodium Thiosulfate]
- Impurity (% Area) Total [4]: 0.0 % Area
- Impurity (% w/w) Total [4]: 0.0 % w/w
